Laboratory results reported in PMC11378297, “Discovery and Profiling of New Multimodal Phenylglycinamide Derivatives as Potent Antiseizure and Antinociceptive Drug Candidates” (ACS Chemical Neuroscience, 2024).
Read-outs that look alike come from different tables or passages of the source.

Tests used:
[1] = tested on: formalin-induced pain, mice; test: formalin test; type: in vivo, mouse
[2] = target: T1, Voltage-Gated Sodium channel hNav1.2 (Homo sapiens, UniProt Q99250); test: human sodium ion channel cell based automated patch clamp assay, hNav1.2
T1 construct: Eurofins Discovery (St. Charles, MO, USA)
Protocol: (§1) Therefore, as a part of the more detailed functional characterization using automated patch clamp method, we tested the influence of (R)-32 on sodium currents mediated by several Navx channels comprising 5 different human subunits, namely, Nav1.1, Nav1.2, Nav1.3, Nav1.6, and Nav1.7, which are involved in both seizure and/or pain modulation.[74],[80],[81] As summarized in Tables S4–S8, (R)-32 starting from 10 μM effectively and in concentration-dependent manner decreased sodium currents mediated by all aforementioned sodium channel subunits. Furthermore, (R)-32 appeared to bind exclusively to sodium channels that are in an inactivated state (see pulse 2 in Tables S4–S8), but not to the channels that are in an open state (pulse 1) (for additional details, see Supporting Information).
(§2) Human sodium ion channels cell based automated patch clamp assay
(§3) Human sodium ion channels cell based automated patch clamp assays: sodium channels exist in, a) a resting or closed state at -120 mV, b) a transient open state that inactivates to c) inactivated state at -10 mV. Sodium current inhibition within 1-2 ms of channel opening at 0 mV is open channel inhibition (pulse 1). In order to completely inactivate the sodium channels and facilitate inactivated state-dependent binding of the drug, the channels were kept at […] ( -10 mV) longer (pulsed for 500 ms) and then stepped back to -120 mV for 10 ms to recover from inactivation into resting or closed state (but the channels that had drug bound to them will not recover from inactivation and will not open) before stepping to -10 mV for 50 ms (pulse 2) to mea sure sodium channels that are available to open. The higher inhibition seen at pulse 2 is due to inactivated state -dependent inhibition. Pulse 1 and 2 are used to investigate drug binding to the open state and inactivated state of the Na channels, respectively. Each concentration of compound is applied for 5 minutes. The results obtained for (R)-32 are summerized in Tables S4–S8. […]
(§4) Compound Concentration Measurement % Inhibition
(§5) Data interpretation: Results showing inhibition greater than 50% are considered to represent significant effects of test compound and have been bolded for (R)-32 for better visualization. The studies were carried out in Eurofins Discovery (St. Charles, MO, USA).

[3] = target: T2, Voltage-Gated Sodium channel hNav1.3 (Homo sapiens, UniProt Q9NY46); test: human sodium ion channel cell based automated patch clamp assay, hNav1.3
T2 construct: Eurofins Discovery (St. Charles, MO, USA)
Protocol: as §1, §2, §3, §4, §5

[4] = target: T3, Voltage-Gated Sodium channel hNav1.1 (Homo sapiens, UniProt P35498); test: human sodium ion channel cell based automated patch clamp assay, hNav1.1
T3 construct: Eurofins Discovery (St. Charles, MO, USA)
Protocol: as §1, §2
Human sodium ion channels cell based automated patch clamp assays: sodium channels exist in, a) a resting or closed state at -120 mV, b) a transient open state that inactivates to c) inactivated state at -10 mV. Sodium current inhibition within 1-2 ms of channel opening at 0 mV is open channel inhibition (pulse 1). In order to completely inactivate the sodium channels and facilitate inactivated state-dependent binding of the drug, the channels were kept at […] ( -10 mV) longer (pulsed for 500 ms) and then stepped back to -120 mV for 10 ms to recover from inactivation into resting or closed state (but the channels that had drug bound to them will not recover from inactivation and will not open) before stepping to -10 mV for 50 ms (pulse 2) to mea sure sodium channels that are available to open. The higher inhibition seen at pulse 2 is due to inactivated state -dependent inhibition. Pulse 1 and 2 are used to investigate drug binding to the open state and inactivated state of the Na channels, respectively. Each concentration of compound is applied for 5 minutes. The results obtained for (R)-32 are summerized in Tables S4–S8.
Table S4. Effect of the (R)-32 on subunit Nav1.1.
Voltage-Gated Sodium channel hNav1.1
as §4, §5

[5] = target: T4, TRPM8 (h) (Homo sapiens, UniProt Q7Z2W7); test: TRPM8 (h) (antagonist effect); type: cell-based; conditions: HEK293, human recombinant HEK-293 cell, read-out: % inhibition of control agonist response
T4 construct: Eurofins
Protocol: Using previously described testing methodologies, binding/functional tests were conducted on a commercial basis at Eurofins Laboratories (Poitiers, France) and Eurofins Panlabs Discovery Services Taiwan, Ltd. (New Taipei City, Taiwan); see Table S9 for more information.
Table S9. Radioligand binding and functional assays. […]
TRPM8 (h) (antagonist effect) […]
Assays were performed commercially in Eurofins Laboratories (Poitiers, France) or Eurofins Panlabs Discovery Services
Taiwan, Ltd. (New Taipei City, Taiwan).

[6] = hNav1.2, Pulse 1 (open state), read-out: % Inhibition Mean
[7] = hNav1.2, Pulse 1 (open state), read-out: % Inhibition n1
[8] = hNav1.2, Pulse 1 (open state), read-out: % Inhibition n2
[9] = hNav1.2, Pulse 2 (inactivated state), read-out: % Inhibition Mean
[10] = hNav1.2, Pulse 2 (inactivated state), read-out: % Inhibition n1
[11] = hNav1.2, Pulse 2 (inactivated state), read-out: % Inhibition n2
[12] = hNav1.3, Pulse 1 (open state), read-out: % Inhibition Mean
[13] = hNav1.3, Pulse 1 (open state), read-out: % Inhibition n1
[14] = hNav1.3, Pulse 1 (open state), read-out: % Inhibition n2
[15] = hNav1.3, Pulse 2 (inactivated state), read-out: % Inhibition Mean
[16] = hNav1.3, Pulse 2 (inactivated state), read-out: % Inhibition n1
[17] = hNav1.3, Pulse 2 (inactivated state), read-out: % Inhibition n2
[18] = hNav1.1, Pulse 1 (open state), read-out: % Inhibition Mean
[19] = hNav1.1, Pulse 1 (open state), read-out: % Inhibition n1
[20] = hNav1.1, Pulse 1 (open state), read-out: % Inhibition n2
[21] = hNav1.1, Pulse 2 (inactivated state), read-out: % Inhibition Mean
[22] = hNav1.1, Pulse 2 (inactivated state), read-out: % Inhibition n1
[23] = hNav1.1, Pulse 2 (inactivated state), read-out: % Inhibition n2

T2 sequence (Q9NY46 whole entry): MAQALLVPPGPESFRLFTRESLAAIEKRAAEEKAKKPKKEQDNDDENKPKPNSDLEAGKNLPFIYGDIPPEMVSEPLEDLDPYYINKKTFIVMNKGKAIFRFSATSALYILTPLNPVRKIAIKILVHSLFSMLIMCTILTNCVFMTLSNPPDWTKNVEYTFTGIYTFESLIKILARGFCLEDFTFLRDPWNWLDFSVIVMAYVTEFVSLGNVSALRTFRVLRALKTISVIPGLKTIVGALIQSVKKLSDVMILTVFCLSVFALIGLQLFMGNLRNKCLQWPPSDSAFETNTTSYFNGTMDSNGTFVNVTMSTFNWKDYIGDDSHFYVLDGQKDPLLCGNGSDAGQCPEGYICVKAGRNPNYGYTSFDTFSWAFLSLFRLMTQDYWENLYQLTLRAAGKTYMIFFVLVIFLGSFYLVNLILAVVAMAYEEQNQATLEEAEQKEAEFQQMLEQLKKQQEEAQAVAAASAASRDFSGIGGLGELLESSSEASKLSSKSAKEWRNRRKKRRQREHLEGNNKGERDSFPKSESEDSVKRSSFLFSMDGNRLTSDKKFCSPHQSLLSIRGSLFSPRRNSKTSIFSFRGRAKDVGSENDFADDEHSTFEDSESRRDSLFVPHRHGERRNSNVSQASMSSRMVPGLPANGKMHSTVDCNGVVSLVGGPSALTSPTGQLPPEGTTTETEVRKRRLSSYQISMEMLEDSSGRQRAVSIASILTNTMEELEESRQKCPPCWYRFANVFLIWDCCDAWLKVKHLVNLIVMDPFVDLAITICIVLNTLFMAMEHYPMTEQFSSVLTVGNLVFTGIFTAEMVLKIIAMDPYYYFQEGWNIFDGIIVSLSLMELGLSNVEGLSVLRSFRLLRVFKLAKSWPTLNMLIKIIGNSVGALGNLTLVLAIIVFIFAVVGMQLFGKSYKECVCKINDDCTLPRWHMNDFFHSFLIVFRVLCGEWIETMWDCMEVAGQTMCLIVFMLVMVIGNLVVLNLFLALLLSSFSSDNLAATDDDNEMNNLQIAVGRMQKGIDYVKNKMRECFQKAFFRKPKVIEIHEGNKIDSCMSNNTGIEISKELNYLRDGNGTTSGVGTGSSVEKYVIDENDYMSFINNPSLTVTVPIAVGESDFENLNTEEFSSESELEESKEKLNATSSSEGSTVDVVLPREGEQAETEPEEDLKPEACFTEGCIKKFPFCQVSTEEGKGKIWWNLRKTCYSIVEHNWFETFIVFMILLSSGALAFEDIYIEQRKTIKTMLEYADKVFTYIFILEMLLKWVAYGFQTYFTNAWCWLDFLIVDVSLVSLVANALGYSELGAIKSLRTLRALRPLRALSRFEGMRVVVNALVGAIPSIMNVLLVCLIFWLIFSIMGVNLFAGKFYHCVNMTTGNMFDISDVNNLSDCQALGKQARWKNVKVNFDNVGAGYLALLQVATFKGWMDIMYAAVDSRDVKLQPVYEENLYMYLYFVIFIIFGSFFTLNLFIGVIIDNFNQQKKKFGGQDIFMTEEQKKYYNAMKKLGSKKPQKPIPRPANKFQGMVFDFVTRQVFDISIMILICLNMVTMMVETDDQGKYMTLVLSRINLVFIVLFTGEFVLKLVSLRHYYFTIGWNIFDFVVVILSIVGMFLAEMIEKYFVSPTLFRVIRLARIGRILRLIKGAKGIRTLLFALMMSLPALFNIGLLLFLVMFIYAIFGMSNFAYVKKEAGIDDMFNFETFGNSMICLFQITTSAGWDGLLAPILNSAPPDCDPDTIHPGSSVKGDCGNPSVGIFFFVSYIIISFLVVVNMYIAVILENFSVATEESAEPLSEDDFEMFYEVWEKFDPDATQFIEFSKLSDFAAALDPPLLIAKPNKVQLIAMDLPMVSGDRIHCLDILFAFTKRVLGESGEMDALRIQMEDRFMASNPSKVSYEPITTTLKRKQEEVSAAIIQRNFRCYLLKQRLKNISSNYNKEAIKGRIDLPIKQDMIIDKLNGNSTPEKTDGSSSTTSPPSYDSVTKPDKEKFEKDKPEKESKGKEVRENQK
T1 sequence (Q99250 whole entry): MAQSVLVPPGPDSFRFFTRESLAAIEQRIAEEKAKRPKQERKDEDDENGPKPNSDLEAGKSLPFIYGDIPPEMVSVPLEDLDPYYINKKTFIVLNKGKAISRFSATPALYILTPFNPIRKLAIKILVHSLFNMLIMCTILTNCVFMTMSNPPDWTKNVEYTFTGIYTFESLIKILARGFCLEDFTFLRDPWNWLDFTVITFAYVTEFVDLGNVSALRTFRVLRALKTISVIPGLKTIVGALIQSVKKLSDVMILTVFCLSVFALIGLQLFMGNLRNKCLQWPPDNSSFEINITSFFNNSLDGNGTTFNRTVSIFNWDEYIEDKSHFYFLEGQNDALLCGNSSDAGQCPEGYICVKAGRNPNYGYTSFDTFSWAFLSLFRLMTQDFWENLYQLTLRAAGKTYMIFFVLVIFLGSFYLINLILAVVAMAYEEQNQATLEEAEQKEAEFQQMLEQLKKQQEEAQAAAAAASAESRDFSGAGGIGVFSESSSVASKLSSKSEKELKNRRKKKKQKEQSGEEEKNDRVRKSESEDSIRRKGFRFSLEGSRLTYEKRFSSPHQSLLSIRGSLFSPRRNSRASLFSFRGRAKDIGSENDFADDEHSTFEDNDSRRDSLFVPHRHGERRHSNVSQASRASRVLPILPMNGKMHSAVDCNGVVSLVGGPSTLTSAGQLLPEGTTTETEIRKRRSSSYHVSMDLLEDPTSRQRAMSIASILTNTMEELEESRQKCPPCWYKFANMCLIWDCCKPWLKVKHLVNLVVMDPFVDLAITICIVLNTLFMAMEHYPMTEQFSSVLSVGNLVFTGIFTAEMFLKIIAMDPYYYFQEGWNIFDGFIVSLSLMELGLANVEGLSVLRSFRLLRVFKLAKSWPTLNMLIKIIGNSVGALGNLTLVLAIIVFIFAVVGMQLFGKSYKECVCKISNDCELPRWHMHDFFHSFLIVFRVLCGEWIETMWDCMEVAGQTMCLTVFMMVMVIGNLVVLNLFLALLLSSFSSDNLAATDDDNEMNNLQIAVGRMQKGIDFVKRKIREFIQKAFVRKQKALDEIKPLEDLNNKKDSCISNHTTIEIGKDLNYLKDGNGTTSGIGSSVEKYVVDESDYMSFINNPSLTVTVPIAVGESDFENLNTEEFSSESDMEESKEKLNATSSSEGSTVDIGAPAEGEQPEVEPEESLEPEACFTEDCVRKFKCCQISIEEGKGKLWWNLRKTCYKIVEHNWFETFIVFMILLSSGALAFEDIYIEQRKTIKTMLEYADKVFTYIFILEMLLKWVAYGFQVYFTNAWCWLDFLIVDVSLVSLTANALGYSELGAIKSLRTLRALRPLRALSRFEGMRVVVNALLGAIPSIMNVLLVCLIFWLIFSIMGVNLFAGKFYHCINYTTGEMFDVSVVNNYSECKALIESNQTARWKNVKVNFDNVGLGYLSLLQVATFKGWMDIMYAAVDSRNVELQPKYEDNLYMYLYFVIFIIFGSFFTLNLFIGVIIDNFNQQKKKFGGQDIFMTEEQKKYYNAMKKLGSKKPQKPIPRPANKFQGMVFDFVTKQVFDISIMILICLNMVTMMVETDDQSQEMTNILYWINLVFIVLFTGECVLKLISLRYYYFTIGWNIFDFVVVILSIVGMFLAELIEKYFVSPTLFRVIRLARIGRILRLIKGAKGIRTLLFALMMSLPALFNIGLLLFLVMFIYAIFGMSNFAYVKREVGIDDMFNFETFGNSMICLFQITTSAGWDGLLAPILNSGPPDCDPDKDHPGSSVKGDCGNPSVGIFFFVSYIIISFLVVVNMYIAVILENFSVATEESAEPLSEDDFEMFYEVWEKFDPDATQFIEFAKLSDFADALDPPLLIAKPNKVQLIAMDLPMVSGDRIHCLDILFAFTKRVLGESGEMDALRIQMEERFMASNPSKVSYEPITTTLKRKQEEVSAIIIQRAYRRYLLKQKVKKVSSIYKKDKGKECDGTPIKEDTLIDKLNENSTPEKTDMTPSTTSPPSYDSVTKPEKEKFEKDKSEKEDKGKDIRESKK
T4 sequence (Q7Z2W7 whole entry): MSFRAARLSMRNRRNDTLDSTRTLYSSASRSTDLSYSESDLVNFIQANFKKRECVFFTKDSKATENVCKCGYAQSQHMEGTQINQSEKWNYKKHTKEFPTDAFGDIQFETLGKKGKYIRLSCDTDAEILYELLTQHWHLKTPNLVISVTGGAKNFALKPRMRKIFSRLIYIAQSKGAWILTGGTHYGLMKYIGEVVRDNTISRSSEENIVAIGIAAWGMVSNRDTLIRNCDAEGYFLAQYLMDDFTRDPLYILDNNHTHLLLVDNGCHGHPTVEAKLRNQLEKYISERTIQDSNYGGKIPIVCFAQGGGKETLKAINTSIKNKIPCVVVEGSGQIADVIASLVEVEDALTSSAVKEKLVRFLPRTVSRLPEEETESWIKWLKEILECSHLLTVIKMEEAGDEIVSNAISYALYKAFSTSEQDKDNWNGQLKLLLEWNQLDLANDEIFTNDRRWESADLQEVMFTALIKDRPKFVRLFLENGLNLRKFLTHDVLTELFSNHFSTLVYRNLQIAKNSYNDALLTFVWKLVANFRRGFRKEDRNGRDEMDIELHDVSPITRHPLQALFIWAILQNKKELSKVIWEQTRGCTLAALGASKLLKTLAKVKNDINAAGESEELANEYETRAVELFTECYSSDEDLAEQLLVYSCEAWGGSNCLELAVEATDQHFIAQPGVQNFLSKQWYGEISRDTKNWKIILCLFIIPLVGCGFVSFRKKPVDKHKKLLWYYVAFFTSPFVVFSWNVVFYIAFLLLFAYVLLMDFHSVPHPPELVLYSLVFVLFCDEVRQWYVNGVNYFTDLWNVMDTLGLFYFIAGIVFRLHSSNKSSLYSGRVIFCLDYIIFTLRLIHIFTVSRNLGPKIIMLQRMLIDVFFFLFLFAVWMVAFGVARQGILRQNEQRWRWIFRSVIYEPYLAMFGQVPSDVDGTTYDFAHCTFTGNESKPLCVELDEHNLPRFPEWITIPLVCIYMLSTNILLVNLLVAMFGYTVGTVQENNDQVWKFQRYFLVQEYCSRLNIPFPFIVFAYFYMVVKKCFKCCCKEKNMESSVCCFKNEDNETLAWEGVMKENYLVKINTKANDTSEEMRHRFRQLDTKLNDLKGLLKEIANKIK

In the case of `CC(=O)N[C@@H](C(=O)N1CCN(c2cccc(OC(F)(F)F)c2)CC1)c1ccccc1` [(R)-32, (R)-N-(2-Oxo-1-phenyl-2-(4-(3-(trifluoromethoxy)phenyl)piperazin-1-yl)ethyl)acetamide], the “nociceptive response, acute phase of the formalin test” value ([1]; 100 mg/kg i.p., 0–5 min after formalin) is reported as “decreased the nociceptive response”, the “nociceptive reaction, second phase of the formalin test” value ([1]; 25, 50 and 100 mg/kg i.p.) is reported as “inhibited nociceptive reaction at all tested doses” and the ED50 ([1]; Mus musculus, ip, mice, i.p., phase II, read-out: ED50 in the late phase of the formalin test) is reported as 35.7 mg/kg. For the same compound, the inhibition at 1 µM [2, 6] was 0.79%, the inhibition at 1 µM [2, 7] was 1.86% and the inhibition at 1 µM [2, 8] was -0.29%. It also gave an inhibition at 10 µM [2, 6] of 3.6%, an inhibition at 10 µM [2, 7] of 2.03% and an inhibition at 10 µM [2, 8] of 5.18%. The inhibition at 100 µM [2, 6] was 33.5%, the inhibition at 100 µM [2, 7] was 35.7% and the inhibition at 100 µM [2, 8] was 31.3%. The inhibition at 1 µM [2, 9] was 1.62%, the inhibition at 1 µM [2, 10] was 1.9% and the inhibition at 1 µM [2, 11] was 1.33%. For the same compound, the inhibition at 10 µM [2, 9] was 41.9%, the inhibition at 10 µM [2, 10] was 45.5% and the inhibition at 10 µM [2, 11] was 38.2%. For the same compound, the inhibition at 100 µM [2, 9] was 100%, the inhibition at 100 µM [2, 10] was 100% and the inhibition at 100 µM [2, 11] was 100%. For the same compound, the inhibition at 1 µM [3, 12] was -3.38%, the inhibition at 1 µM [3, 13] was -7.33% and the inhibition at 1 µM [3, 14] was 0.56%. For the same compound, the inhibition at 10 µM [3, 12] was -3.18%, the inhibition at 10 µM [3, 13] was -8.46% and the inhibition at 10 µM [3, 14] was 2.11%. It also gave an inhibition at 100 µM [3, 12] of 6.75%, an inhibition at 100 µM [3, 13] of 5.68% and an inhibition at 100 µM [3, 14] of 7.82%. It also gave an inhibition at 1 µM [3, 15] of -2.78%, an inhibition at 1 µM [3, 16] of -5.59% and an inhibition at 1 µM [3, 17] of 0.03%. For the same compound, the inhibition at 10 µM [3, 15] was 39.5%, the inhibition at 10 µM [3, 16] was 42.1% and the inhibition at 10 µM [3, 17] was 37%. The inhibition at 100 µM [3, 15] was 99.1%, the inhibition at 100 µM [3, 16] was 99.6% and the inhibition at 100 µM [3, 17] was 98.6%. For the same compound, the inhibition at 1 µM [4, 18] was 1.61%, the inhibition at 1 µM [4, 19] was 2.91% and the inhibition at 1 µM [4, 20] was 0.31%. The inhibition at 10 µM [4, 18] was 1.2%, the inhibition at 10 µM [4, 19] was -0.28% and the inhibition at 10 µM [4, 20] was 2.68%. For the same compound, the inhibition at 100 µM [4, 18] was 31%, the inhibition at 100 µM [4, 19] was 24% and the inhibition at 100 µM [4, 20] was 38%. The inhibition at 1 µM [4, 21] was 1.92%, the inhibition at 1 µM [4, 22] was 1.74% and the inhibition at 1 µM [4, 23] was 2.11%. For the same compound, the inhibition at 10 µM [4, 21] was 41.9%, the inhibition at 10 µM [4, 22] was 45.3% and the inhibition at 10 µM [4, 23] was 38.6%. For the same compound, the inhibition at 100 µM [4, 21] was 97.6%, the inhibition at 100 µM [4, 22] was 97.9% and the inhibition at 100 µM [4, 23] was 97.4%. For the same compound, the inhibition at 10 µM [5] was 12.6%.
